The text below walks through data of PMC11555526, “Development of 2-Aminoadenine-Based Proteolysis-Targeting Chimeras (PROTACs) as Novel Potent Degraders of Monopolar Spindle 1 and Aurora Kinases” (ACS Pharmacology & Translational Science, 2024).

Data set [1] can be described thus: Stability in buffer solutions (LC-ESI-MS). It counts as physicochemical. As to conditions: for residual concentration (% of initial concentration): after 24 h. The protocol: Lastly, to gain a first insight into the stability of the synthesized compounds in a biological system, the stability of one of the degraders was examined at two different pH values and in human plasma (Figures S8 and S9). We chose one of the best degraders of the SF1 series, 20 as it also resembled the best degrader from azareversine series 19 in terms of the linker and E3-binding moiety. All experiments were carried out at 37 °C, and aliquots were analyzed using LC-ESI-MS at predetermined time points. […] We concluded from the stability profile of 20 that it is sufficient for further testing. […]
Stability in Buffer Solutions
The stability of the conjugate was examined by performing chemostability experiments at two different buffer solutions (pH = 5.2 and 7.4). Conjugate 20 was dissolved in 5 µL DMSO and transferred to 0.5 mL of the relevant buffer solution (acetate or phosphate aquatic buffer solutions). The mixture was then incubated at 37 °C, samples were collected at predetermined time points (0, 1, 2, 3, 4, 5, 24 and 48 h), and analyzed by LC-MS.
Results are presented as the mean ± of SD after repeating the experiment three times.
Figure S9: ESI-LCMS charts detected at 254 nm of conjugate 20 at pΗ5.2 and selected time intervals

The nature of data set [2]: Plasma stability (LC-ESI-MS). To be noted: 37 °C. The class given is in vitro ADME. The protocol:
Lastly, to gain a first insight into the stability of the synthesized compounds in a biological system, the stability of one of the degraders was examined at two different pH values and in human plasma (Figures S8 and S9). We chose one of the best degraders of the SF1 series, 20 as it also resembled the best degrader from azareversine series 19 in terms of the linker and E3-binding moiety. All experiments were carried out at 37 °C, and aliquots were analyzed using LC-ESI-MS at predetermined time points. […] We concluded from the stability profile of 20 that it is sufficient for further testing.
First, 250 µg of conjugate 20 were diluted in 5 µL DMSO and the mixture was added to 0.5 mL of human plasma. The mixture was incubated at 37 °C. 50 µL of aliquot was removed at predetermined time points and quenched with 150 µL ice-cold acetonitrile (+0.1% formic acid). Then, the mixture was centrifuged at 10,000 rpm for 10 min. Then, 50 µL of supernatant was added to 50 µL of ultrapure water (+0.1% formic acid) and analyzed by LC-MS. Results are presented as the mean ± SD of three independent experiments. […]

In a further data set the target is T1, TTK (Homo sapiens, UniProt P33981).
T1 sequence (P33981 1-857): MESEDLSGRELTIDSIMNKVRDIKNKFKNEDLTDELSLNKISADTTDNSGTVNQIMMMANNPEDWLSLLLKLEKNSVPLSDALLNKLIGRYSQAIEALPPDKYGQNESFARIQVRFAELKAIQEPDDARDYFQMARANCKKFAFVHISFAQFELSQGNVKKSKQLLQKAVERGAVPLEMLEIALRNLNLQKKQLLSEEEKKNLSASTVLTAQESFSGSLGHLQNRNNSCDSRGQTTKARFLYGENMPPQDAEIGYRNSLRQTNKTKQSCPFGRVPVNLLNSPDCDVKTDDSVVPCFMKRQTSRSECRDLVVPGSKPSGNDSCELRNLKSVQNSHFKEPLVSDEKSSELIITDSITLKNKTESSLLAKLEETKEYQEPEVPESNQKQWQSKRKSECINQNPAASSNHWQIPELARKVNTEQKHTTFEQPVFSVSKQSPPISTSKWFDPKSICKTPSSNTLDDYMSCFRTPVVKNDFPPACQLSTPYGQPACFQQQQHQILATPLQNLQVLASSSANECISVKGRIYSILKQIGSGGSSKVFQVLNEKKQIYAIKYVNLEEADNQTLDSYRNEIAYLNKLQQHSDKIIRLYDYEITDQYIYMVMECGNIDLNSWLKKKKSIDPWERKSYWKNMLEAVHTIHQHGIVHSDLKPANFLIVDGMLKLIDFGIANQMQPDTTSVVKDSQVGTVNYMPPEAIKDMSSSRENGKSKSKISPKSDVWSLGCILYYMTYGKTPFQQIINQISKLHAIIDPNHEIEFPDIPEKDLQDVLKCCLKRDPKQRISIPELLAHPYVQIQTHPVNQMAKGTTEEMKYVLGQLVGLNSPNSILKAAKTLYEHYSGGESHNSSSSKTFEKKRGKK
The data set can be described thus: Immunoblot of TTK in HiBiT-TTK cells. Further details: endogenous in cells; host or cells: naive MV4-11. To be noted: 6 h, 10 µM. It counts as cell-based. The protocol:
The cells were treated with compounds or vehicle for indicated time points and lysed in RIPA lysis buffer (50 mM HEPES pH 7.9, 140 mM NaCl, 1 mM EDTA, 1% Triton X-100, 0.1% SDS, 0.1% sodium deoxycholate) containing protease and phosphatase inhibitors (Sigma) for 20 min at 4 °C. Cell lysates were cleared by centrifugation, and protein concentration was determined with bicinchoninic acid assay. Equal amounts of protein per sample were separated by Bis-Tris-PAGE and transferred to PVDF membranes (Millipore). The membranes were blocked with 5% (w/v) nonfat dry milk in TBS-T [20 mM Tris–HCl, pH 7.5, 150 mM NaCl, 0.1% (v/v) Tween-20] for 1 h at room temperature and incubated with primary antibody at 4 °C overnight. Visualization was carried out using horseradish peroxidase (HRP)-labeled secondary antibodies and detected using a chemiluminescent HRP substrate (Millipore) in LAS3000 or LAS4000 mini (Fujifilm). Vinculin, GAPDH, or B-actin were used as a loading control. The loading control was probed along with the target antibody by cutting the membrane. For targets with similar molecular weights, the samples were run in duplicate and probed with their respective loading controls, although only one control was shown in the figure for all targets. The signal was quantified using ImageJ or Image Studio Lite against the corresponding loading controls. […]
(In general: A western blot detects proteins with antibodies after separation by electrophoresis.)

On to `CC(C)S(=O)(=O)c1ccccc1Nc1nc(Nc2ccc(N3CCN(C(=O)CNC(=O)CCCC(=O)Nc4cccc5c4C(=O)N(C4CCC(=O)NC4=O)C5=O)CC3)cc2)nc2[nH]cnc12` (centres unmarked) [Compound 20], for which the “residual concentration (% of initial concentration)” value was 56% in data set [1] (pH 5.2, 37 °C) and 11.2% in data set [1] (pH 7.4, 37 °C). Also, the “stability at both pH values” in data set [1] (pH 5.2 and 7.4, 37 °C, for 8 h) is “stable”. Moreover, in data set [2], the “half-life (t1/2) in human plasma” value turned out to be 4.4 h.

On to `Cc1ncsc1-c1ccc(CNC(=O)[C@@H]2C[C@@H](O)CN2C(=O)[C@@H](NC(=O)COCCOCC(=O)N2CCN(c3ccc(Nc4nc(Nc5ccccc5S(=O)(=O)C(C)C)c5nc[nH]c5n4)cc3)CC2)C(C)(C)C)cc1` [Compound 49], for which the “relative TTK level (immunoblot quantification, vehicle = 1.00)” value on TTK turned out to be 0.48.
